According to patent publication US10314827B2, “Methods of use of cyclopamine analogs” (Infinity Pharmaceuticals, Inc., priority 2006, dated 2019):

Tests used:
[1] = test system: BXPC-3 cells; experiment: Pancreatic cancer model: subcutaneous BXPC-3 tumors in mice; format: in vivo, human; settings: orally 40 mg/kg/day, 25 daily doses, p=0.0309
Procedure: (§1) The activity of Compound 42 was further tested in a human pancreatic model: BXPC-3 cells were implanted subcutaneously into the flanks of the right legs of mice. On day 42 post-tumor implant, the mice were randomized into two groups to receive either Vehicle (30% HPBCD) or Compound 42. Compound 42 administered orally at 40 mg/kg/day. […] At the end of the study, the tumors were harvested 4 hours post the last dose to evaluate an on target response by q-RT-PCR analysis of the HH pathway genes.

[2] = test system: human Gli-1; experiment: q-RT-PCR of HH pathway genes in harvested BXPC-3 tumors, human Gli-1; format: in vivo; settings: tumors harvested 4 hours post last dose, 40 mg/kg/day orally
Procedure: as §1

[3] = Oral multi-dose MTD; settings: mouse, in vivo, mice
[4] = test system: NCI-H929; experiment: Multiple myeloma colony growth in methylcellulose, NCI-H929; format: cell-based, human; settings: NCI-H929, treated 96 hours, colonies quantified 10-21 days later
Procedure: (§2) The ability of Compound 42 to inhibit the growth of multiple myeloma cells (MM) in vitro was tested, using human multiple myeloma cells lines (NCI-H929 and KMS12) and primary clinical bone marrow specimens derived from patients with MM. The cells were treated for 96 hours with Compound, washed, then plated in methylcellulose. Tumor colonies were quantified 10-21 days later as an indicator of cell growth potential following treatment.

[5] = test system: KMS12; experiment: Multiple myeloma colony growth in methylcellulose, KMS12; format: cell-based, human; settings: KMS12, treated 96 hours, colonies quantified 10-21 days later
Procedure: as §2

[6] = test system: primary clinical bone marrow specimens derived from patients with MM; experiment: Multiple myeloma colony growth in methylcellulose, primary clinical specimens; format: cell-based, human; settings: primary clinical MM samples, treated 96 hours, colonies quantified 10-21 days later
Procedure: as §2

[7] = test system: KG1; experiment: MDS colony formation in methylcellulose, KG1; format: cell-based, human; settings: 1.0 um, 72 hours
Procedure: The ability of Compound 42 to inhibit the in vitro growth of human cell lines derived from patients with acute myeloid leukemia (AML, cell line U937) and myelodysplastic syndrome (MDS, cell line KG1 and KG1a) was studied. Each of the cell lines was treated for 72 hours with Compound 42 (1.0 um) followed by plating in methylcellulose.

[8] = test system: RL; experiment: NHL colony formation in methylcellulose, RL; format: cell-based, human; settings: 1.0 um, 72 hours
Procedure: (§3) The ability of Compound 42 to inhibit the in vitro growth of human cell lines derived from patients with non-Hodgkin's lymphoma (cell lines RL and Jeko-1) and Hodgkin's disease (cell line L428) was studied. Each of the cell lines was treated for 72 hours with Compound 42 (1.0 um) followed by plating in methylcellulose.

[9] = test system: Jeko-1; experiment: NHL colony formation in methylcellulose, Jeko-1; format: cell-based, human; settings: Jeko-1 (NHL), 1.0 um, 72 hours
Procedure: as §3

[10] = test system: REH; experiment: ALL colony formation in methylcellulose, REH; format: cell-based; settings: treated 72 hours
Procedure: The effect of Compound 42 on the growth of two of these cell lines, treated in vitro for 72 hours, was also studied. Following treatment, cells were washed and plated in methylcellulose.

In the case of CC1=C2C[C@H]3[C@@H](CC[C@@H]4C[C@H](NS(C)(=O)=O)CC[C@@]43C)[C@@H]2CC[C@@]2(C1)O[C@@H]1C[C@H](C)CN[C@H]1[C@H]2C [Compound 42], the “reduction of tumor volume growth compared to vehicle control” value [1] is reported as 40%, the “human Gli-1 modulation (q-RT-PCR)” value [2] is reported as “no modulation” and the MTD [3] is reported as 40 mg/kg/day. For the same compound, the “growth of cells relative to untreated control (100%)” value [4] was “less than 25%”, the “growth of cells relative to untreated control (100%)” value [5] was “less than 25%” and the “growth of cells relative to untreated control (100%)” value [6] was “less than 25%”. The “% colony formation with Compound 42 (relative to vehicle control)” value [7] was 25.1%, the “% colony formation with Compound 42 (relative to vehicle control)” value [8] was 14.3% and the “% colony formation with Compound 42 (relative to vehicle control)” value [9] was 27.4%. For the same compound, the “colony formation with Compound (relative to vehicle control) - 1° plating” value [10] was 63 and the “colony formation with Compound (relative to vehicle control) - 2° plating” value ([10]; replating of colonies) was 9.
